Experimental data published in patent US12528786B2, “Plasma kallikrein inhibitors” (Merck Sharp & Dohme LLC, priority 2020, dated 2026).

Biological target: T1, Human plasma kallikrein (Homo sapiens, UniProt P03952)
T1 construct: yields a heavy chain (371 amino acids) and a light chain (248 amino acids); purchased Enzyme Research Laboratories
Assay: Kallikrein Assay (fluorogenic substrate hydrolysis, AFC release)
Format: biochemical
Conditions: purified Human plasma kallikrein 0.5 nM; substrate Acetyl-K—P—R-AFC 100 mM; 50 mM HEPES pH 7.4
Protocol: The effectiveness of a compound of the present invention as an inhibitor of Kallikrein can be determined using a relevant purified serine protease, and an appropriate synthetic substrate. The rate of hydrolysis of the chromogenic or fluorogenic substrate by the relevant serine protease was measured both in the absence and presence of compounds of the present invention. Assays were conducted at room temperature or at 37° C. […] A decrease in the rate of fluorescence change in the presence of inhibitor is indicative of enzyme inhibition. Such methods are known to one skilled in the art. The results of this assay are expressed as the half-maximal inhibitory concentrations (IC50), or the inhibitory constant, Ki.
Kallikrein determinations were made in 50 mM HEPES buffer at pH 7.4 containing 150 mM NaCl, 5 mM CaCl2), and 0.1% PEG 8000 (polyethylene glycol; Fisher Scientific). Determinations were made using purified Human plasma kallikrein at a final concentration of 0.5 nM (Enzyme Research Laboratories) and the synthetic substrate, Acetyl-K—P—R-AFC (Sigma #C6608) at a concentration of […].
Activity assays were performed by diluting a stock solution of substrate at least tenfold to a final concentration ≤0.2 Km into a solution containing enzyme or enzyme equilibrated with inhibitor. Times required to achieve equilibration between enzyme and inhibitor were determined in control experiments. The reactions were performed under linear progress curve conditions and fluorescence increase measured at 405 Ex/510 Em nm. Values were converted to percent inhibition of the control reaction (after subtracting 100% Inhibition value). IC50 was determined by inflection point from a four parameter logistic curve fit. Ki was calculated using the Cheng Prusoff equation, Ki=IC50/(1+([S]/Km)).

T1 sequence (P03952 391-638 limits assumed): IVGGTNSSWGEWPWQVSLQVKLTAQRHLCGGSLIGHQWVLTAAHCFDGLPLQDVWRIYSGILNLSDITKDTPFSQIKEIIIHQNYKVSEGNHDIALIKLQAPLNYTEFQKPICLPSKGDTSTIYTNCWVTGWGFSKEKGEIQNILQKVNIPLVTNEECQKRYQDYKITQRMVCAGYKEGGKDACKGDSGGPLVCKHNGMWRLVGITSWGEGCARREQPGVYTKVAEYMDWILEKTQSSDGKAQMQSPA
T1 sequence (P03952 20-390 partner limits assumed): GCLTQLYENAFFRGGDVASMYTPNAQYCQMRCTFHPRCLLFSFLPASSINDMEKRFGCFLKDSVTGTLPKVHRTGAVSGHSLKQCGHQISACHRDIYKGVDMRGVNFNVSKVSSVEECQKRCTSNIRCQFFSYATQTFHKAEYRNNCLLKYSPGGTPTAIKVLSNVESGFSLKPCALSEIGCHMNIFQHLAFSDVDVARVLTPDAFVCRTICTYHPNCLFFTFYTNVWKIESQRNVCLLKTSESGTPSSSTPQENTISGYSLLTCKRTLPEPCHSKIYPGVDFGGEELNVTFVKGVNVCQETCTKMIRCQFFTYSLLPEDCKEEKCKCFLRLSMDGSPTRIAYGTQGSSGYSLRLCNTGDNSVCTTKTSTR

| Structure (SMILES) | IC50 |
| --- | --- |
| Cc1cc(N2C[C@H]3C[C@H]3C2=O)nnc1C(C)n1cc(C(=O)N[C@H]2C[C@@H](c3cc(Cl)ccc3C#N)C2)nn1 (single isomer, unassigned) [Example 118, N-((cis)-3-(5-chloro-2-cyanophenyl)cyclobutyl)-1-((S or R)-1-(4-methyl-6-((1R,5S)-2-oxo-3-azabicyclo[3.1.0]hexan-3-yl)pyridazin-3-yl)ethyl)-1H-1,2,3-triazole-4-carboxamide] | 4.7 nM |
| Cc1c([C@H](C)n2cc(C(=O)NC3CC(c4cccc(Cl)c4)C3O)nn2)cnc(N2C[C@H]3C[C@H]3C2=O)c1C (single isomer, unassigned) [Example 152, N-((1S,2S,3S or 1R,2R,3R))-3-(3-chlorophenyl)-2-hydroxycyclobutyl)-1-((S)-1-(4,5-dimethyl-6-((1R,5S)-2-oxo-3-azabicyclo[3.1.0]hexan-3-yl)pyridin-3-yl)ethyl)-1H-1,2,3-triazole-4-carboxamide] | 78 nM |
| N#Cc1ccc(Cl)cc1[C@H]1C[C@@H](NC(=O)c2cnn(Cc3cnc(N4C[C@@H]5C[C@@H]5C4=O)nc3)c2)C1 (stereo in doubt) [Example 1, N-((cis)-3-(5-chloro-2-cyanophenyl)cyclobutyl)-1-((2-((1S,5R)-2-oxo-3-azabicyclo[3.1.0]hexan-3-yl)pyrimidin-5-yl)methyl)-1H-pyrazole-4-carboxamide] | 8.6 nM |
| Cc1ccc(C#N)c([C@H]2C[C@@H](NC(=O)c3cn(C(C)c4cnc(N5C[C@H]6C[C@H]6C5=O)c(C)c4)nn3)C2)c1 (single isomer, unassigned) [Example 134, N-((cis)-3-(2-cyano-5-methylphenyl)cyclobutyl)-1-((S or R)-1-(5-methyl-6-((1R,5S)-2-oxo-3-azabicyclo[3.1.0]hexan-3-yl)pyridin-3-yl)ethyl)-1H-1,2,3-triazole-4-carboxamide] | 5.4 nM |
| Cc1cc(N2C[C@H]3C[C@H]3C2=O)ncc1C(C)n1cc(C(=O)N[C@H]2C[C@@](F)(c3cc(Cl)ccc3C#N)C2)nn1 (single isomer, unassigned) [Example 75, N-(cis)-3-(5-chloro-2-cyanophenyl)-3-fluorocyclobutyl)-1-((R or S)-1-(4-methyl-6-((1R,5S)-2-oxo-3-azabicyclo[3.1.0]hexan-3-yl)pyridin-3-yl)ethyl)-1H-1,2,3-triazole-4-carboxamide] | 0.2 nM |
| COc1cc(N2C[C@H]3C[C@H]3C2=O)ncc1[C@H](C)n1cc(C(=O)N[C@H]2C[C@@H](c3cc(Cl)ccc3C#N)C2)cn1 (single isomer, unassigned) [Example 11] | 0.9 nM |
| Cc1cc(N2C[C@H]3C[C@H]3C2=O)ncc1C(C)n1cc(C(=O)N[C@@H]2CC[C@H](c3cc(Cl)ccc3C#N)C2)nn1 (single isomer, unassigned) [Example 63, N-((1R,3S)-3-(5-chloro-2-cyanophenyl)cyclopentyl)-1-((S or R)-1-(4-methyl-6-((1R,5S)-2-oxo-3-azabicyclo[3.1.0]hexan-3-yl)pyridin-3-yl)ethyl)-1H-1,2,3-triazole-4-carboxamide] | 26 nM |
| Cc1cc(N2C[C@H]3C[C@H]3C2=O)ncc1C1(n2cc(C(=O)N[C@H]3C[C@@H](c4cc(Cl)ccc4C#N)C3)nn2)CC1 [Example 160, N-((cis)-3-(5-chloro-2-cyanophenyl)cyclobutyl)-1-(1-(4-methyl-6-((1R,5S)-2-oxo-3-azabicyclo[3.1.0]hexan-3-yl)pyridin-3-yl)cyclopropyl)-1H-1,2,3-triazole-4-carboxamide] | 6.7 nM |
| Cc1cc(N2C[C@H]3C[C@H]3C2=O)nnc1C(C)n1cc(C(=O)N[C@H]2C[C@@H](c3cc(Cl)ccc3C#N)C2)cn1 (single isomer, unassigned) [Example 47, N-((cis)-3-(5-chloro-2-cyanophenyl)cyclobutyl)-1-((R or S)-1-(4-methyl-6-((1R,5S)-2-oxo-3-azabicyclo[3.1.0]hexan-3-yl)pyridazin-3-yl)ethyl)-1H-pyrazole-4-carboxamide] | 2.1 nM |

The remaining compounds from weak to strong by IC50, led by results:

| IC50 | Structure (SMILES) |
| --- | --- |
| 2710 nM | Cc1cc(N2C[C@H]3C[C@H]3C2=O)ncc1C(C)n1cc(C(=O)N[C@@H]2CC[C@H](c3cc(Cl)ccc3C#N)C2)nn1 (single isomer, unassigned) [Example 62, N-((1R,3S)-3-(5-chloro-2-cyanophenyl)cyclopentyl)-1-((R or S)-1-(4-methyl-6-((1R,5S)-2-oxo-3-azabicyclo[3.1.0]hexan-3-yl)pyridin-3-yl)ethyl)-1H-1,2,3-triazole-4-carboxamide] |
| 5.8 nM | Cc1c([C@H](C)n2cc(C(=O)NC34CCCC(c5cc(Cl)ccc5C#N)(C3)C4)nn2)cnc(N2C[C@H]3C[C@H]3C2=O)c1C [Example 150, N-(5-(5-chloro-2-cyanophenyl)bicyclo[3.1.1]heptan-1-yl)-1-((S)-1-(4,5-dimethyl-6-((1R,5S)-2-oxo-3-azabicyclo[3.1.0]hexan-3-yl)pyridin-3-yl)ethyl)-1H-1,2,3-triazole-4-carboxamide] |
| 4.8 nM | CC(c1cnc(N2C[C@H]3C[C@H]3C2=O)c(N)c1)n1cc(C(=O)N[C@H]2C[C@@H](c3cc(Cl)ccc3C#N)C2)nn1 (single isomer, unassigned) [Example 107, 1-((R or S)-1-(5-amino-6-((1R,5S)-2-oxo-3-azabicyclo[3.1.0]hexan-3-yl)pyridin-3-yl)ethyl)-N-((cis)-3-(5-chloro-2-cyanophenyl)cyclobutyl)-1H-1,2,3-triazole-4-carboxamide] |
| 4.3 nM | CC(c1cnc(N2C[C@H]3C[C@H]3C2=O)c(F)c1)n1cc(C(=O)N[C@H]2C[C@@H](c3cc(Cl)ccc3C#N)C2)nn1 (single isomer, unassigned) [Example 104, N-((cis)-3-(5-chloro-2-cyanophenyl)cyclobutyl)-1-((S or R)-1-(5-fluoro-6-((1R,5S)-2-oxo-3-azabicyclo[3.1.0]hexan-3-yl)pyridin-3-yl)ethyl)-1H-1,2,3-triazole-4-carboxamide] |
| 1.8 nM | COc1cc(C(C)n2cc(C(=O)N[C@H]3C[C@@H](c4cc(Cl)ccc4C#N)C3)nn2)cnc1N1C[C@H]2C[C@H]2C1=O (single isomer, unassigned) [Example 101, N-((cis)-3-(5-chloro-2-cyanophenyl)cyclobutyl)-1-((R or S)-1-(5-methoxy-6-((1R,5S)-2-oxo-3-azabicyclo[3.1.0]hexan-3-yl)pyridin-3-yl)ethyl)-1H-1,2,3-triazole-4-carboxamide] |
| 1.6 nM | C[C@H](c1cncc(N2C[C@H]3C[C@H]3C2=O)c1)n1cc(C(=O)N[C@H]2C[C@@H](c3cc(Cl)ccc3C#N)C2)nn1 (single isomer, unassigned) [Example 137] |
| 1.1 nM | Cc1c([C@H](C)n2cc(C(=O)NC3CC(c4cccc(Cl)c4)C3O)nn2)cnc(N2C[C@H]3C[C@H]3C2=O)c1C (single isomer, unassigned) [Example 151, N-((1R,2R,3R or 1S,2S,3S))-3-(3-chlorophenyl)-2-hydroxycyclobutyl)-1-((S)-1-(4,5-dimethyl-6-((1R,5S)-2-oxo-3-azabicyclo[3.1.0]hexan-3-yl)pyridin-3-yl)ethyl)-1H-1,2,3-triazole-4-carboxamide] |
| 1 nM | Cc1c(N2C[C@H]3C[C@H]3C2=O)ncc([C@@H](C)n2cc(C(=O)NC3CC(c4cc(Cl)ccc4C#N)C3)cn2)c1F (single isomer, unassigned) [Example 165] |
| 0.6 nM | Cc1cc(N2C[C@H]3C[C@H]3C2=O)ncc1C(C)n1cc(C(=O)N[C@H]2C[C@@H](c3cc(Cl)ccc3C#N)C2)nn1 (single isomer, unassigned) [Example 59, N-((cis)-3-(5-chloro-2-cyanophenyl)cyclobutyl)-1-((R or S)-1-(4-methyl-6-((1R,5S)-2-oxo-3-azabicyclo[3.1.0]hexan-3-yl)pyridin-3-yl)ethyl)-1H-1,2,3-triazole-4-carboxamide] |
| 0.5 nM | Cc1c(C(C)n2cc(C(=O)N[C@H]3C[C@@H](c4cc(Cl)ccc4C#N)C3)nn2)cnc(N2C[C@H]3C[C@H]3C2=O)c1C (single isomer, unassigned) [Example 87, N-((cis)-3-(5-chloro-2-cyanophenyl)cyclobutyl)-1-((S or R)-1-(4,5-dimethyl-6-((1R,5S)-2-oxo-3-azabicyclo[3.1.0]hexan-3-yl)pyridin-3-yl)ethyl)-1H-1,2,3-triazole-4-carboxamide] |
| 0.3 nM | Cc1c(C(C)n2cc(C(=O)N[C@H]3C[C@@H](c4cc(Cl)ccc4C#N)C3)cn2)nnc(N2C[C@H]3C[C@H]3C2=O)c1C (single isomer, unassigned) [Example 42, N-((cis)-3-(5-chloro-2-cyanophenyl)cyclobutyl)-1-((S or R)-1-(4,5-dimethyl-6-((1R,5S)-2-oxo-3-azabicyclo[3.1.0]hexan-3-yl)pyridazin-3-yl)ethyl)-1H-pyrazole-4-carboxamide] |
| 0.1 nM | Cc1c(C(C)n2cc(C(=O)NC3CC(c4cc(Cl)ccc4C#N)C3)cn2)cnc(N2C[C@H]3C[C@H]3C2=O)c1Cl (single isomer, unassigned) [Example 168] |
